Legend:
Assay type in all cases: in vivo
[1] = tested on: barnyardgrass (Echinochloa crus-galli); assay: Test B postemergence; conditions: 13 to 15 days
Method in brief: (§1)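 Seeds were planted and sprayed preemergence with test chemical in a non-phytotoxic solvent mixture containing surfactant; postemergence plants (2 to 18 cm, 1- to 4-leaf stage) received the same formulation. Greenhouse hold 13 to 15 days, then visual rating versus untreated controls on a 0–100 scale (0 no effect, 100 complete control).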

corn (Zea mays) [2] = assay: Test B postemergence; conditions: 13 to 15 days
Method in brief: as §1

[3] = tested on: wheat (Triticum aestivum); assay: Test B postemergence; conditions: 13 to 15 days
Method in brief: as §1

wild oat (Avena fatua) = assay: Test B postemergence; conditions: 13 to 15 days
Method in brief: as §1

Nightshade [4] = assay: Test C preemergence
corn (Zea mays) [5] = assay: Test C preemergence
Method in brief: (§2)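 Test chemicals, formulated in a non-phytotoxic solvent mixture with surfactant, were applied preemergence to planted seeds or postemergence to plants 2 to 18 cm tall (1- to 4-leaf stage). After 12 to 14 days in a greenhouse, injury was visually rated against untreated controls on a 0–100 scale.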

[6] = tested on: johnsongrass (Sorghum halepense); assay: Test C preemergence
Method in brief: as §2

[7] = tested on: lambsquarters (Chenopodium album); assay: Test C preemergence
Method in brief: as §2

[8] = tested on: pigweed (Amaranthus retroflexus); assay: Test C preemergence
Method in brief: as §2

soybean (Glycine max) = assay: Test C preemergence
Method in brief: as §2

[9] = tested on: woolly cupgrass (Eriochloa villosa); assay: Test C preemergence
Method in brief: as §2

[10] = tested on: yellow nutsedge (Cyperus esculentus); assay: Test C preemergence
Method in brief: as §2

[11] = tested on: barnyardgrass (Echinochloa crus-galli); assay: Test C flooded paddy test; conditions: for Barnyardgrass plant response rating: Flooded Paddy, scale 0 to 100, 0 no effect, 100 complete control; for Plant response rating, Barnyardgrass / Plant response rating (scale 0 to 100), Barnyardgrass: flooded paddy test; for Plant response rating, Barnyardgrass: scale 0 to 100 (0 no effect, 100 complete control)
Method in brief: (§3)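 Each species was cultivated to 2 leaves in flooded paddy pots, then treated. After a greenhouse period of 12–14 days, the plants were scored visually relative to controls from 0 (no effect) to 100 (complete control).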

[12] = tested on: duck salad (Heteranthera limosa); assay: Test C flooded paddy test; conditions: for Ducksalad plant response rating: Flooded Paddy, scale 0 to 100, 0 no effect, 100 complete control; for Plant response rating, Ducksalad / Plant response rating (scale 0 to 100), Ducksalad: flooded paddy test; for Plant response rating, Ducksalad: scale 0 to 100 (0 no effect, 100 complete control)
Method in brief: as §3

rice (Oryza saliva) = assay: Test C flooded paddy test; conditions: for Rice plant response rating: Flooded Paddy, scale 0 to 100, 0 no effect, 100 complete control; for Plant response rating, Rice / Plant response rating (scale 0 to 100), Rice: flooded paddy test; for Plant response rating, Rice: scale 0 to 100 (0 no effect, 100 complete control)
Method in brief: as §3

[13] = tested on: smallflower flatsedge (Cyperus difformis); assay: Test C flooded paddy test; conditions: for Flatsedge plant response rating: Flooded Paddy, scale 0 to 100, 0 no effect, 100 complete control; for Plant response rating, Flatsedge / Plant response rating (scale 0 to 100), Flatsedge: flooded paddy test; for Plant response rating, Flatsedge: scale 0 to 100 (0 no effect, 100 complete control)
Method in brief: as §3

Nightshade [14] = assay: Test C preemergence; conditions: Rate 250 g/ha, visual evaluation after 12 to 14 days
Sunflower = assay: Test C preemergence; conditions: Rate 125 g/ha, scale 0 to 100, 0 no effect, 100 complete control
[15] = Rate 125 g/ha, scale 0 (no effect) to 100 (complete control)
[16] = Rate 500 g/ha, scale 0 to 100, 0 is no effect, 100 is complete control
[17] = Rate 62 g/ha, scale 0 to 100, 0 no effect, 100 complete control
[18] = Preemergence, Rate 500 g/ha, scale 0 to 100
[19] = preemergence, Rate 250 g/ha, visual evaluation after 12 to 14 days
[20] = preemergence, Rate 125 g/ha, scale 0 to 100, 0 no effect, 100 complete control
[21] = Rate 16 g/ha, visually evaluated after 12 to 14 days, 0 = no effect, 100 = complete control
[22] = under head Rate 16 g/ha, (own rate not given), after 12 to 14 days

CC(C)(C)c1ccn(C2SCN(c3cccc(OC(F)(F)F)c3)C2=O)n1 (stereo not shown) [Compound 30]
Plant response rating, Barnyardgrass [1, 15]: 100
Plant response rating, Barnyardgrass [1, 16]: 100
Plant response rating, Corn (corn (Zea mays) [2]; [15]): 0
Plant response rating, Corn (corn (Zea mays) [2]; [16]): 0
Plant response rating, Wheat [3, 15]: 0
Plant response rating, Wheat [3, 16]: 0
Plant response rating, Wild Oat (wild oat (Avena fatua); [15]): 0
Plant response rating, Wild Oat (wild oat (Avena fatua); [16]): 0
Plant response rating, Nightshade (Nightshade [4]; [17]): 80
Plant response rating, Nightshade (Nightshade [4]; Rate 125 g/ha, scale 0 to 100, 0 no effect, 100 complete control): 90
Plant response rating, Nightshade (Nightshade [4]; Rate 500 g/ha, scale 0 to 100): 100
Plant response rating, Corn (corn (Zea mays) [5]; [18]): 50
Plant response rating, Corn (corn (Zea mays) [5]; [17]): 30
Plant response rating (0 to 100), Corn (corn (Zea mays) [5]; [19]): 50
Plant response rating, Corn (corn (Zea mays) [5]; [20]): 40
Plant response rating, Johnsongrass [6, 18]: 100
Plant response rating, Johnsongrass [6, 17]: 30
Plant response rating (0 to 100), Johnsongrass [6, 19]: 90
Plant response rating, Johnsongrass [6, 20]: 40
Plant response rating, Lambsquarters [7, 18]: 100
Plant response rating, Lambsquarters [7, 17]: 100
Plant response rating (0 to 100), Lambsquarters [7, 19]: 100
Plant response rating, Lambsquarters [7, 20]: 100
Plant response rating, Pigweed [8, 18]: 100
Plant response rating, Pigweed [8, 17]: 90
Plant response rating (0 to 100), Pigweed [8, 19]: 90
Plant response rating, Pigweed [8, 20]: 50
Plant response rating, Soybean (soybean (Glycine max); [18]): 70
Plant response rating, Soybean (soybean (Glycine max); [17]): 30
Plant response rating (0 to 100), Soybean (soybean (Glycine max); [19]): 70
Plant response rating, Soybean (soybean (Glycine max); [20]): 70
Plant response rating, Cupgrass, Woolly [9, 18]: 100
Plant response rating, Cupgrass, Woolly [9, 17]: 70
Plant response rating (0 to 100), Cupgrass, Woolly [9, 19]: 90
Plant response rating, Cupgrass, Woolly [9, 20]: 70
Plant response rating, Nutsedge [10, 18]: 40
Plant response rating, Nutsedge [10, 17]: 20
Plant response rating (0 to 100), Nutsedge [10, 19]: 40
Barnyardgrass plant response rating ([11]; Rate 250 g/ha): 100
Barnyardgrass plant response rating ([11]; Rate 500 g/ha): 100
Plant response rating, Barnyardgrass ([11]; Rate 62 g/ha): 100
Plant response rating, Barnyardgrass ([11]; Rate 125 g/ha): 100
Plant response rating (scale 0 to 100), Barnyardgrass [11, 21]: 80
Plant response rating (scale 0 to 100), Barnyardgrass [11, 22]: 60
Ducksalad plant response rating ([12]; Rate 250 g/ha): 100
Ducksalad plant response rating ([12]; Rate 500 g/ha): 100
Plant response rating, Ducksalad ([12]; Rate 62 g/ha): 70
Plant response rating, Ducksalad ([12]; Rate 125 g/ha): 100
Plant response rating (scale 0 to 100), Ducksalad [12, 21]: 50
Plant response rating (scale 0 to 100), Ducksalad [12, 22]: 0
Rice plant response rating (rice (Oryza saliva); Rate 250 g/ha): 80
Rice plant response rating (rice (Oryza saliva); Rate 500 g/ha): 80
Plant response rating, Rice (rice (Oryza saliva); Rate 62 g/ha): 0
Plant response rating, Rice (rice (Oryza saliva); Rate 125 g/ha): 20
Plant response rating (scale 0 to 100), Rice (rice (Oryza saliva); [21]): 0
Plant response rating (scale 0 to 100), Rice (rice (Oryza saliva); [22]): 0
Flatsedge plant response rating ([13]; Rate 250 g/ha): 100
Flatsedge plant response rating ([13]; Rate 500 g/ha): 100
Plant response rating, Flatsedge ([13]; Rate 62 g/ha): 90
Plant response rating, Flatsedge ([13]; Rate 125 g/ha): 100
Plant response rating (scale 0 to 100), Flatsedge [13, 21]: 90
Plant response rating (scale 0 to 100), Flatsedge [13, 22]: 90
Plant response rating (0 to 100), Nightshade (Nightshade [14]): 100
Plant response rating, Sunflower (Sunflower): 80

Reference: patent US7138361B2, “Herbicidal heterocycles” (E. I. du Pont de Nemours and Company, priority 2000, dated 2006)
